Values joined by “and” are separate entries in the source; they are usually repeats but may differ in a detail not shown here. Equal entries are not always repeated.
System: 429239-143-T-J1-PDC complex spheroid viability
Assay: Anticancer human tumor 429239-143-T-J1-PDC patient-derived small cell lung carcinoma cell line growth inhibition [POLQ]
Conditions: for viability, T/C: stronger effect = lower value; active means viability on the fitted dose curve at most 10% of control; inactive means the rest
Experimental: Multicellular complex tumor spheroid response to Polymerase (POL) inhibitors (novobiocin, ART-558, RP6685) in combination with a variety of drugs and investigational agents in selected tumor cell lines
The POL inhibitors (novobiocin, ART-558, and RP6685) were evaluated both individually and in combination with standard of care and investigational anticancer small molecules within a complex spheroid model of solid tumors. . Complex spheroids include a stromal component modeled by human endothelial cells (HUVEC) and fibroblasts modeled by human mesenchymal stem cells (MSCs). The concentration ranges selected for each drug and investigational agent were based upon clinically achievable concentrations if the clinical Cmax of the agent was known.
Compounds. The drugs and investigational agents: novobiocin (NSC847541), ART-558 (NSC835418), RP-6685 (NSC848927), peposertib (NSC802822), ceralasertib (NSC780249), elimusertib (NSC800525), camonsertib (NSC841442), AZD-1390 (NSC803789), olaparib (NSC753686), talazoparib (NSC767125), rucaparib (NSC756644), sotorasib (NSC818433), MRTX-1133 (NSC836407), SN-38 (NSC673596), topotecan (NSC609699), epotoside (NSC141540), doxorubicin (NSC123127), gemcitabine (NSC613327), 5-fluorouracil (NSC19893), paclitaxel (NSC125973), vemurafenib (NSC761431), MSA-2 (NSC828583), SN-011 (NSC837082), adavosertib (NSC754352), prexasertib (NSC758257), carboplatin (NSC241240) and oxaliplatin (NSC266046), were obtained from the National Cancer Institute (NCI) Developmental Therapeutics Program Chemical Repository (21). The FDA-approved anticancer drug set is available from the Developmental Therapeutics Program at https://dtp.cancer.gov/organization/dscb/obtaining/. […] The stock solutions were prepared in dimethyl sulfoxide (DMSO, Sigma-Aldrich, St. Louis, MO, cat. D2650), except for the platinum compounds which were prepared in saline (Quality Biological, Gaithersburg, MD, cat. 114-055-101), at 800-fold the tested concentration and stored at -70 degrees C prior to their use. All drugs and investigational agents were tested over a range starting from a high concentration at or near the clinical Cmax and decreasing in half-log increments. If the clinical Cmax for an agent had not been determined, the highest concentration tested was 10 microM, except for SN-38, which was tested at a high concentration of 1 microM.
Cell Culture. All cells were maintained in an incubator at 37 degrees C and 5% CO2 with 95% humidity. The PDC lines were cultured according to standard operating procedures established by the NCI PDMR (https://pdmr.cancer.gov). Table 3 of the manuscript, lists the cell lines along with the number of the three cell types plated to form the mct-spheroids and media for tumor cell growth. After thawing, all PDC lines, except 997537-175-T-J1-PDC and 415267-285-R-J2-PDC, were cultured in Matrigel-coated flasks prepared with a working solution of 1X Ham's F-12 nutrient mix, without supplementation (Thermo Fisher Scientific, cat. 11765054), 100 U/mL penicillin-streptomycin (Thermo Fisher Scientific, cat. 15140122), and 2.5% Matrigel (Corning Inc., Corning, NY, cat. 354248) for the first three passages. The two PDC lines 997537-175-T-J1-PDC and 415267-285-R-J2-PDC were cultured on uncoated flasks. The 857933-349-R-J2-PDC line was cultured in 6C/Colon 1B media containing advanced DMEM/F-12 (Thermo Fisher Scientific, cat. 12634028), 10 mM HEPES (Thermo Fisher Scientific, cat. 15630080), 1X GlutaMAX supplement (Thermo Fisher Scientific, cat. 35050061), 0.1 mg/mL primocin (InvivoGen, San Diego, CA, cat. ant-pm-2), 10% defined fetal bovine serum, heat inactivated (HyClone Laboratories Inc., Logan, UT, cat. SH30070.03HI), 50% L-WRN conditioned media (ATCC, cat. CRL-3276), 1.25 mM N-Acetyl-L-cysteine (Sigma-Aldrich, cat. A9165), 10 mM nicotinamide (Sigma-Aldrich, cat. N0636), 1X B-27 supplement (Thermo Fisher Scientific, cat. 17504044), 1X N-2 supplement (Thermo Fisher Scientific, cat. […]
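Further: luminescence signal used as surrogate measure of viable cells; spheroids exposed to compounds for seven days before readout.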
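Wherever viability, T/C is given: 100% = DMSO vehicle control viability as luminescence relative to vehicle.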

CC1COCCN1c1cc(-c2ccnn2C)c2ccnc(-c3ccn[nH]3)c2n1 (configuration not stated) + Cc1cccc(N(C)C(=O)C2C(O)CCN2c2nc(C)cc(C(F)(F)F)c2C#N)c1
128 nM: IC50 (curve of first compound, second compound 0.316 µM)
106 nM: IC50 (curve of first compound, second compound 10 µM)
88.5 nM: IC50 (curve of first compound, second compound 1 µM)
121 nM: IC50 (curve of first compound, second compound 0.1 µM)
active: viability, T/C (second compound 0.0316 µM, first compound 10 µM) 10.9% | viability, T/C (second compound 0.1 µM, first compound 3.16 µM) 9.92% | viability, T/C (second compound 0.1 µM, first compound 10 µM) 10.2% | viability, T/C (second compound 0.316 µM, first compound 3.16 µM) 9.82% | viability, T/C (second compound 0.316 µM, first compound 10 µM) 8.22% | viability, T/C (second compound 1 µM, first compound 10 µM) 9.85% | viability, T/C (second compound 3.16 µM, first compound 10 µM) 10.4% | viability, T/C (second compound 10 µM, first compound 10 µM) 9.99%
90.9 nM: IC50 (curve of first compound, second compound 3.16 µM)
135 nM: IC50 (curve of first compound, second compound 0.0316 µM)
inactive: viability, T/C (second compound 0.0316 µM, first compound 0.0316 µM) 88.1% | viability, T/C (second compound 0.0316 µM, first compound 0.1 µM) 54.9% | viability, T/C (second compound 0.0316 µM, first compound 0.316 µM) 34.8% | viability, T/C (second compound 0.0316 µM, first compound 1 µM) 15.2% | viability, T/C (second compound 0.0316 µM, first compound 3.16 µM) 9.81% | viability, T/C (second compound 0.1 µM, first compound 0.0316 µM) 83.7% | viability, T/C (second compound 0.1 µM, first compound 0.1 µM) 54.4% | viability, T/C (second compound 0.1 µM, first compound 0.316 µM) 26.7% | viability, T/C (second compound 0.1 µM, first compound 1 µM) 11.2% | viability, T/C (second compound 0.316 µM, first compound 0.0316 µM) 82.1% | viability, T/C (second compound 0.316 µM, first compound 0.1 µM) 55.4% | viability, T/C (second compound 0.316 µM, first compound 0.316 µM) 29.9% | viability, T/C (second compound 0.316 µM, first compound 1 µM) 12.9% | viability, T/C (second compound 1 µM, first compound 0.0316 µM) 86.3% | viability, T/C (second compound 1 µM, first compound 0.1 µM) 44.1% | viability, T/C (second compound 1 µM, first compound 0.316 µM) 28.4% | viability, T/C (second compound 1 µM, first compound 1 µM) 13.8% | viability, T/C (second compound 1 µM, first compound 3.16 µM) 11.9% | viability, T/C (second compound 3.16 µM, first compound 0.0316 µM) 77.9% | viability, T/C (second compound 3.16 µM, first compound 0.1 µM) 44.1% | viability, T/C (second compound 3.16 µM, first compound 0.316 µM) 35% | viability, T/C (second compound 3.16 µM, first compound 1 µM) 16.1% | viability, T/C (second compound 3.16 µM, first compound 3.16 µM) 11.2% | viability, T/C (second compound 10 µM, first compound 0.0316 µM) 77.4% | viability, T/C (second compound 10 µM, first compound 0.1 µM) 50.7% | viability, T/C (second compound 10 µM, first compound 0.316 µM) 30.7% | viability, T/C (second compound 10 µM, first compound 1 µM) 17.7% | viability, T/C (second compound 10 µM, first compound 3.16 µM) 11.7%

Cn1ncnc1[C@H]1c2n[nH]c(=O)c3cc(F)cc(c23)N[C@@H]1c1ccc(F)cc1
23.4 nM and > 100 nM: IC50 (curve of compound)
inactive: viability, T/C (compound 0.000316 µM) 101% and 105% and 93.1% | viability, T/C (compound 0.001 µM) 96.8% and 94.6% and 88.7% | viability, T/C (compound 0.00316 µM) 78% and 94.1% and 76.6% | viability, T/C (compound 0.01 µM) 71% and 86% and 60.1% | viability, T/C (compound 0.0316 µM) 40.5% and 78.3% and 47.5% | viability, T/C (compound 0.1 µM) 30.4% and 63.1% and 29%

Cc1cccc(N(C)C(=O)C2C(O)CCN2c2nc(C)cc(C(F)(F)F)c2C#N)c1 (configuration not stated)
inactive: viability, T/C (compound 0.0316 µM) 103% [middle of 13 runs] | viability, T/C (compound 0.1 µM) 102% [middle of 13 runs] | viability, T/C (compound 0.316 µM) 98% [middle of 13 runs] | viability, T/C (compound 1 µM) 100% [middle of 13 runs] | viability, T/C (compound 3.16 µM) 104% [middle of 13 runs] | viability, T/C (compound 10 µM) 106% [middle of 13 runs]
> 10000 nM: IC50 (compound alone, run of 01/08/2024) | IC50 (compound alone, run of 01/19/2024)

Source: PubChem BioAssay AID1963845 (Molecular Pharmacology Branch, DTP, NCI, 2024)
